Results published in ChEMBL document CHEMBL1158727, “Cyclobutane dimers from the Colombian medicinal plant Achyrocline bogotensis” (2005).

Tests used:
Format in all cases: functional
PBMC [1] = test: Inhibition of LPS-induced IL10 production in human PBMC at 0.3 mg/mL after 48 hrs by ELISA
PBMC [2] = test: Inhibition of LPS-induced IL12 production in human PBMC at 0.3 mg/mL after 48 hrs by ELISA
PBMC [3] = test: Inhibition of LPS-induced TNFalpha production in human PBMC at 0.3 mg/mL after 48 hrs by ELISA

## C[C@]12C=CC(=O)C=C1CC[C@@H]1[C@@H]2[C@@H](O)C[C@@]2(C)[C@H]1CC[C@]2(O)C(=O)CO [PREDNISOLONE]
PBMC [1]
  inhibition at 300 µg/mL: 0.14%
PBMC [2]
  inhibition at 300 µg/mL: 0.24%
PBMC [3]
  inhibition at 300 µg/mL: 0.44%
